Patent publication US9200260B2, “Compositions and methods for the transfer of a hexosamine to a modified nucleotide in a nucleic acid” (New England Biolabs, Inc., priority 2012, dated 2015)

Columns and labels:
[1] = biological target: T1, wild-type BGT (T4-β-glucosyltransferase) (Enterobacteria phage T4, UniProt P04547); experiment: Enzymatic transfer of UDP-sugars to BGT DNA by wild-type BGT (protection from MfeI cleavage, agarose gel); type: biochemical; details: for UDP-Sugar concentration required for complete protection of BGT DNA from MfeI cleavage: enzyme BGT, 100 ng, 0.25 μg BGT DNA, 37° C. 1 h, >> incomplete protection at highest tested concentration, n.a. no activity
T1 construct: purchased New England Biolabs, Inc. (Ipswich, Mass.)
T1 sequence (P04547 1-351): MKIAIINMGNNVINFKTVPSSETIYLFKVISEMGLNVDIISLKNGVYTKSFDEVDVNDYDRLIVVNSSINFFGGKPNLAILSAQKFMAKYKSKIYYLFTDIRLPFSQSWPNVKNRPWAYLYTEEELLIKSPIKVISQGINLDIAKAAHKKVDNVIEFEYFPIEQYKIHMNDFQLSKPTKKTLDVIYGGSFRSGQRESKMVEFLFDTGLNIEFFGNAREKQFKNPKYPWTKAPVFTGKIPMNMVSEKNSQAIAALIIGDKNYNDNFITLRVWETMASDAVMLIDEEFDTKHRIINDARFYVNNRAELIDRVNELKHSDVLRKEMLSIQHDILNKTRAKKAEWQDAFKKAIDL
Method: (§1) After glycosylation, the glucosyltransferase was heat-inactivated by incubating for 10 minutes at 70° C. To analyze the enzyme-catalyzed transfer efficiency, samples were incubated with 1 μL (20 units) MfeI for 1 hour at 37° C. Reaction products were separated by agarose gel electrophoresis and stained with ethidium bromide to check for complete protection of BGT DNA against MfeI cleavage. […]
(§2) BGT DNA contains 5-hmC instead of cytosine and was produced from phage deficient in α- and β-glucosyltransferases. The degree of glycosylation of BGT DNA was determined by incubating the samples with the restriction endonuclease MfeI.
(§3) Top row: wild-type BGT; middle row: BGT/Y261L; bottom row: wild-type AGT. […] Then the glucosyltransferase was killed by heat at 70° C., and 1 μL (20 units) MfeI was added and incubated at 37° C. for 1 hour. The results were analyzed by agarose gel electrophoresis. Concentration values are given in mM.
(§4) Top row: wild-type BGT; middle row: BGT/Y261L; bottom row: wild-type AGT. […] Various concentrations of each substrate (as indicated) were incubated with 0.25 μg BGT DNA in the presence of 100 ng glucosyltransferase at 37° C. for 1 hour. Then the glucosyltransferase was killed by heat at 70° C. for 10 minutes, and 1 μL (20 units) MfeI was added and incubated at 37° C. for 1 hour. The results were analyzed by agarose gel electrophoresis. Concentration values are given in mM.

[2] = biological target: T2, wild-type AGT (T4 phage α-glucosyltransferase) (Enterobacteria phage T4, UniProt P04519); experiment: Enzymatic transfer of UDP-sugars to BGT DNA by wild-type AGT (protection from MfeI cleavage, agarose gel); type: biochemical; details: for UDP-Sugar concentration required for complete protection of BGT DNA from MfeI cleavage: enzyme AGT, 100 ng, 0.25 μg BGT DNA, 37° C. 1 h, >> incomplete protection at highest tested concentration, n.a. no activity
T2 construct: purchased New England Biolabs, Inc. (Ipswich, Mass.)
Method: After glycosylation, the glucosyltransferase was heat-inactivated by incubating for 10 minutes at 70° C. To analyze the enzyme-catalyzed transfer efficiency, samples were incubated with 1 μL (20 units) MfeI for 1 hour at 37° C. Reaction products were separated by agarose gel electrophoresis and stained with ethidium bromide to check for complete protection of BGT DNA against MfeI cleavage.
Nucleic Acids Res., 13, 7551-7568; Szwagierczak, A., Bultmann, S., Schmidt, C. […] Nucleic Acids Res., 38, e181].
as §2, §3, §4

BGT/Y261L [3] = biological target: T3, BGT/Y261L (Enterobacteria phage T4, UniProt P04547, Y261L); details: 0.02 to 10.0 mM in the presence of 40 μM UDP-Glc; UDP-Glc 0.02 to 20.0 mM in the presence of 5 mM compound
Method: (§5) After adding 100 ng of wild-type BGT or BGT/Y261L, the reaction mixtures were incubated at 37° C. for 1 hour in 1× NEBuffer 4. After glycosylation, the glucosyltransferase was heat-inactivated by incubating for 10 minutes at 70° C. […] Reaction products were separated by electrophoresis on agarose gel and stained with ethidium bromide.
(§6) Concentration values are given in mM.

wild-type BGT [4] = biological target: T4, wild-type BGT (Enterobacteria phage T4, UniProt P04547); details: 0.02 to 10.0 mM in the presence of 40 μM UDP-Glc; UDP-Glc 0.02 to 20.0 mM in the presence of 5 mM compound
Method: as §5, §6

AGT = AGT (Enterobacteria phage T4, UniProt P04519)
BGT/Y261L [5] = biological target: T3, BGT/Y261L; type: biochemical; design: purchased New England Biolabs, Inc. (Ipswich, Mass.); details: for transfer efficiency by BGT/Y261L (in words): compared with natural UDP-Glc; for UDP-Sugar concentration required for complete protection of BGT DNA from MfeI cleavage: enzyme BGT/Y261L, 100 ng, 0.25 μg BGT DNA, 37° C. 1 h, >> incomplete protection at highest tested concentration, n.a. no activity
Method: as §1, §2, §3, §4

wild-type BGT [6] = biological target: T4, wild-type BGT; details: cited from earlier work

T2 sequence (P04519 whole entry): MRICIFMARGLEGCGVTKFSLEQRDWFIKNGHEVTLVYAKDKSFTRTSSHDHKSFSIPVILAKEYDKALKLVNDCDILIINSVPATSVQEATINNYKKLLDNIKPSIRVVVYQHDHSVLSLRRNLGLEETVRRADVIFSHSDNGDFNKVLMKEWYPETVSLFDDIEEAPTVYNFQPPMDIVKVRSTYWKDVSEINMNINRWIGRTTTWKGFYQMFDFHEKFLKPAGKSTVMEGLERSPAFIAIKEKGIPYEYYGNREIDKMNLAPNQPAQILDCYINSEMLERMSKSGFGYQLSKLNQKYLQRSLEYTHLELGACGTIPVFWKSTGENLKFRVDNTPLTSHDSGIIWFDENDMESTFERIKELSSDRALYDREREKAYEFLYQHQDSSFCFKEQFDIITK
T3 sequence (P04547 whole entry Y261L): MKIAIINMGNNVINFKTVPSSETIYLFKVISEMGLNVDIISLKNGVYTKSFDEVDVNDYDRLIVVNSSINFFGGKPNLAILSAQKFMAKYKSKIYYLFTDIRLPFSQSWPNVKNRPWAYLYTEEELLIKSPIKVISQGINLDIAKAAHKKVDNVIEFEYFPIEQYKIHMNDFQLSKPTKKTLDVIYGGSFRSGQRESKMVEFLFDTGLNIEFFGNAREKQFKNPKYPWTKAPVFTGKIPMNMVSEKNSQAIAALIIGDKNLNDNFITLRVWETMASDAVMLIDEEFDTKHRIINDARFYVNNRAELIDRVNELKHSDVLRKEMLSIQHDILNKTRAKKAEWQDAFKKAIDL
Chain of AGT (P04519 whole entry): as the sequence (P04519 whole entry) above

[N-]=[N+]=NC1C(OP(=O)(O)OP(=O)(O)OCC2OC(n3ccc(=O)[nH]c3=O)C(O)C2O)OC(CO)C(O)C1O (stereo not shown) [Compound 2, UDP-2-Azido-Glc]
transfer efficiency by wild-type BGT (in words) ([1]; compared with natural UDP-Glc): None of the three tested enzymes efficiently transferred | transfer efficiency by wild-type AGT (in words) [2]: None of the three tested enzymes efficiently transferred | inhibition of BGT/Y261L (mode, in words) (BGT/Y261L [3]): competitive inhibitor | inhibition of wild-type BGT (mode, in words) (wild-type BGT [4]): competitive inhibitor | inhibition of AGT (in words) (AGT): not for AGT | transfer efficiency by BGT/Y261L (in words) (BGT/Y261L [5]): None of the three tested enzymes efficiently transferred

UDP-2-Keto-Glc [Compound 5]
UDP-Sugar concentration required for complete protection of BGT DNA from MfeI cleavage [1]: >>4.0 mM | transfer by BGT/Y261L at the highest tested concentration (BGT/Y261L [5]; 4 mM): not detected | UDP-Sugar concentration required for complete protection of BGT DNA from MfeI cleavage (BGT/Y261L [5]): >>4.0 mM

[N-]=[N+]=NCC1OC(OP(=O)(O)OP(=O)(O)OC[C@H]2O[C@@H](n3ccc(=O)[nH]c3=O)[C@H](O)[C@@H]2O)C(O)C(O)C1O (stereo partly shown) [Compound 1, UDP-6-Azido-Glc, reference compound]
UDP-Sugar concentration required for complete protection of BGT DNA from MfeI cleavage [1]: 0.04 mM | decrease in the reaction rate compared to the native UDP-Glc cofactor (wild-type BGT [6]): ~6 fold | transfer efficiency by BGT/Y261L (in words) (BGT/Y261L [5]): cannot efficiently transfer | UDP-Sugar concentration required for complete protection of BGT DNA from MfeI cleavage (BGT/Y261L [5]): >>1.0 mM

CC(=O)N[C@H]1[C@@H](OP(=O)(O)OP(=O)(O)OC[C@H]2O[C@@H](n3ccc(=O)[nH]c3=O)[C@H](O)[C@@H]2O)O[C@H](CO)[C@@H](O)[C@@H]1O [UDP-GlcNAc, UDP-N-acetyl-D-glucosamine, reference compound]
UDP-Sugar concentration required for complete protection of BGT DNA from MfeI cleavage [1]: 25 mM | UDP-Sugar concentration required for complete protection of BGT DNA from MfeI cleavage [2]: >>20.0 mM | transfer by BGT/Y261L more efficient than by wild-type BGT (BGT/Y261L [5]; BGT/Y261L versus wild-type BGT): 10 fold | UDP-Sugar concentration required for complete protection of BGT DNA from MfeI cleavage (BGT/Y261L [5]): 2.5 mM | transfer efficiency by the Y261L enzyme, lower compared to UDP-2-GlcN 4 (BGT/Y261L [5]; relative to UDP-2-GlcN 4): approximately 100 fold

NCC1OC(OP(=O)(O)OP(=O)(O)OC[C@H]2O[C@@H](n3ccc(=O)[nH]c3=O)[C@H](O)[C@@H]2O)C(O)C(O)C1O (stereo partly shown) [Compound 3, UDP-6-glucosamine]
UDP-Sugar concentration required for complete protection of BGT DNA from MfeI cleavage [1]: 0.02 mM | UDP-Sugar concentration required for complete protection of BGT DNA from MfeI cleavage [2]: >>5.0 mM | UDP-Sugar concentration required for complete protection of BGT DNA from MfeI cleavage (BGT/Y261L [5]): 0.31 mM | transfer efficiency by BGT/Y261L, lower than natural UDP-Glc (BGT/Y261L [5]; relative to natural UDP-Glc): about 15 fold

O=C(O)[C@H]1O[C@H](OP(=O)(O)OP(=O)(O)OC[C@H]2O[C@@H](n3ccc(=O)[nH]c3=O)[C@H](O)[C@@H]2O)[C@H](O)[C@@H](O)[C@@H]1O [UDP-GlcUA, UDP-Glucuronic acid, reference compound]
UDP-Sugar concentration required for complete protection of BGT DNA from MfeI cleavage [1]: 1.0 mM | UDP-Sugar concentration required for complete protection of BGT DNA from MfeI cleavage [2]: >>20.0 mM | UDP-Sugar concentration required for complete protection of BGT DNA from MfeI cleavage (BGT/Y261L [5]): >>10.0 mM

N[C@H]1[C@@H](OP(=O)(O)OP(=O)(O)OC[C@H]2O[C@@H](n3ccc(=O)[nH]c3=O)[C@H](O)[C@@H]2O)O[C@H](CO)[C@@H](O)[C@@H]1O [Compound 4, UDP-2-glucosamine]
UDP-Sugar concentration required for complete protection of BGT DNA from MfeI cleavage [1]: 0.03 mM | UDP-Sugar concentration required for complete protection of BGT DNA from MfeI cleavage [2]: >>1.25 mM | UDP-Sugar concentration required for complete protection of BGT DNA from MfeI cleavage (BGT/Y261L [5]): 0.03 mM
